Reference: paper PMC8759724 (Journal of Enzyme Inhibition and Medicinal Chemistry, 2021)

Legend:
WT PfDHFR [1] = biological target: WT PfDHFR (Plasmodium falciparum, UniProt P13922, N108S/R59C); experiment: Differential scanning fluorimetry; format: binding; settings: DSF, apo PfDHFR (no NADPH added with the ligand)
WT PfDHFR [2] = biological target: WT PfDHFR (Plasmodium falciparum, UniProt P13922); experiment: PfDHFR activity assay; format: biochemical

## NC(=O)C1=CN([C@@H]2O[C@H](COP(=O)(O)OP(=O)(O)OC[C@H]3O[C@@H](n4cnc5c(N)ncnc54)[C@H](OP(=O)(O)O)[C@@H]3O)[C@@H](O)[C@H]2O)C=CC1 [NADPH]
WT PfDHFR [1]
  ΔTm (melting temperature variation): +4 °C

## Nc1nc(=O)c2c([nH]1)NCC(CNc1ccc(C(=O)N[C@@H](CCC(=O)O)C(=O)O)cc1)=N2 [DHF, dihydrofolate]
WT PfDHFR [1]
  ΔTm (melting temperature variation): minor melting temperature variations

## NC(=O)Nc1cccc(C(F)(F)F)c1 [fragment 148, [3-(trifluoromethyl)phenyl]urea]
WT PfDHFR [2]
  IC50: 464 µM

## tetrahydrofolate [THF]
WT PfDHFR [1]
  ΔTm (melting temperature variation): minor melting temperature variations
